Results reported in patent US9687483B2, “Treatment of cerebral cavernous malformations and cerebral aneurysms with Rho kinase inhibitors” (priority 2015, dated 2017).
Values joined by “and” are separate entries in the source; they are usually repeats but may differ in a detail not shown here. Equal entries are not always repeated. Where two headings read alike, the source gives them in different places.

How the values were obtained:
HUVEC cells [1] = test: Endothelial cell actin cytoskeleton, Rhodamine-phalloidin staining; type: cell-based, human; conditions: 10 μM or 25 μM
cadherin in HUVEC cells = test: Cadherin expression in HUVEC, Western blot; type: cell-based, human; conditions: 50 μM, 24 hr, vs control; p<0.05
occludin in HUVEC cells = test: Occludin expression in HUVEC, Western blot; type: cell-based, human; conditions: for Effect on junctional protein expression at lower dose: 25 μM
HUVEC cells [2] = test: In vitro endothelial tubulogenesis assay on ECMatrix; type: cell-based, human; conditions: 10 or 50 μM (or μg/mL); 6 hr to 16 hr; vs untreated cells
[3] = target: ROCK II recombinantly-produced kinase domain (Homo sapiens (Human), UniProt O75116); conditions: read-out: ROCK II IC50; ATP 10 μM, substrate 200 nM; Fasudil mean ± SD of 3-4 experiments; BA-1049 two individual experiments
[4] = tested on: ROCK II recombinantly-produced kinase domain; conditions: ROCK II versus ROCK I
[5] = target: ROCK I recombinantly-produced kinase domain (Homo sapiens (Human), UniProt Q13464); conditions: read-out: ROCK I IC50; ATP 10 μM, substrate 200 nM; Fasudil mean ± SD of 3-4 experiments; BA-1049 two individual experiments
Chain of ROCK I recombinantly-produced kinase domain (Q13464 76-338): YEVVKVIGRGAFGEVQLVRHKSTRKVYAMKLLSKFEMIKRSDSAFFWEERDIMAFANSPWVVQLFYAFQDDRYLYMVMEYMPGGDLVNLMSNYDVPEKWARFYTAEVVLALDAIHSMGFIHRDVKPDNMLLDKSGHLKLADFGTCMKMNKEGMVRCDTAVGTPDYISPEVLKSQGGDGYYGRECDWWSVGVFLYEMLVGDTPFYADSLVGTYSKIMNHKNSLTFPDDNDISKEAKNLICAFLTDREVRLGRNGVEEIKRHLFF

HUVEC cells [6] = tested on: HUVEC cells
Caco-2 cell monolayers [7] = conditions: for Transport mechanism across Caco-2 monolayers: from B to A/A to B Papp ratios; for Caco-2 cell permeability (classification): from measured Papp values
Caco-2 cell monolayers [8] = test: Caco-2 permeability assay
[9] = tested on: induced intracranial saccular aneurysms in Sprague Dawley rats; test: Prophylactic reduction of intracranial aneurysm burden in vivo; parameters: species or system rat; conditions: vs control rats
[10] = tested on: induced intracranial saccular aneurysms in Sprague Dawley rats; test: Reduction of prevalence/size of existing aneurysms in vivo; parameters: species or system rat
in vitro [11] = conditions: human, Caco-2, pH 7.4
[12] = known values for controls; cited from earlier work
in vitro [13] = conditions: human, plasma
[14] = human plasma, 24 hr dialysis, 37° C., mean of 2 replicates
[15] = both, human, 24 h, 35 µM, pH 7.4
[16] = both, human, plasma, 24 h, 35 µM, pH 7.4

Q: Which “Effect on actin stress fibers” value (HUVEC cells [1]) does the source give for `CC(N)C1CCN(S(=O)(=O)c2cccc3cnccc23)CC1.Cl.Cl` (racemic) [BA-1049] here?
A: disrupted stress fibers

Q: What about the “Effect on junctional (peripheral) actin distribution” value (HUVEC cells [1]) of the same molecule?
A: little to no effect

Q: And the Cadherin increase (cadherin in HUVEC cells)?
A: 1.2 fold

Q: What about the “Effect on junctional protein expression at lower dose” value (occludin in HUVEC cells) of the same molecule?
A: no significant effect

Q: What about the Occludin increase (occludin in HUVEC cells; 50 μM, 24 hr, vs control, p<0.05) of the same molecule?
A: 1.3 fold

Q: What about the “Endothelial cell tube formation” value (HUVEC cells [2]) of the same molecule?
A: some tubes are visible but are not always closed and are thin

Q: And the IC50 [3]?
A: 1.6 µM and 0.94 µM

Q: What about the “Selectivity for Rock II” value [4] of the same molecule?
A: 13.1 -fold

Q: And the IC50 [5]?
A: 21 µM

Q: And the “Disruption of proliferation compared with Fasudil at a given concentration” value (HUVEC cells [6]; 72 hr)?
A: did not disrupt proliferation to the same extent as Fasudil

Q: And the “Proliferation of endothelial cells” value (HUVEC cells [6]; 72 hr incubation)?
A: reduced proliferation

Q: What about the “Concentration at which decrease in cell proliferation appears” value (HUVEC cells [6]; 72 hr, p<0.05 or p<0.01) of the same molecule?
A: 1 µM

Q: What about the “Papp A to B” value (Caco-2 cell monolayers [7]; apical to basolateral, 60 min, pH 7.4) of the same molecule?
A: 10.7 ×10⁻⁶ cm/s

Q: What about the “Papp B to A” value (Caco-2 cell monolayers [7]; basolateral to apical, 60 min, pH 7.4) of the same molecule?
A: 14.1 ×10⁻⁶ cm/s

Q: What about the “Transport mechanism across Caco-2 monolayers” value (Caco-2 cell monolayers [7]) of the same molecule?
A: passively transported

Q: And the “Caco-2 cell permeability (classification)” value (Caco-2 cell monolayers [7])?
A: intermediate to high

Q: And the Bound (human plasma proteins; [14])?
A: 7.26%

Q: And the Unbound (human plasma proteins; [14])?
A: 92.7%

Q: What about the “B-A/A-B Papp Ratio” value (Caco-2 cell monolayers [8]) of the same molecule?
A: 1.31

Q: Which “Effect on junctional (peripheral) actin distribution” value (HUVEC cells [1]) does the source give for `O=S(=O)(c1cccc2cnccc12)N1CCCNCC1` [Fasudil] here?
A: disrupted the peripheral actin to a greater extent than the stress fibers

Q: What about the Cadherin increase (cadherin in HUVEC cells) of the same molecule?
A: 1.2 fold

Q: And the “Effect on junctional protein expression at lower dose” value (occludin in HUVEC cells)?
A: no significant effect

Q: What about the Occludin decrease (occludin in HUVEC cells; 50 μM, 24 hr, vs control, p<0.001) of the same molecule?
A: 50%

Q: And the “Endothelial cell tube formation” value (HUVEC cells [2])?
A: some tubes are visible but are not always closed and are thin

Q: What about the “Average aneurysm size and area” value [9] of the same molecule?
A: reduces

Q: And the “Level of inflammatory invasion in a given aneurysm” value [9]?
A: reduces

Q: What about the “Number of iron deposits near a given aneurysm” value [9] of the same molecule?
A: reduces

Q: What about the “Rho kinase activity in the endothelial and smooth muscle cells of the aneurysm wall” value [9] of the same molecule?
A: reduces

Q: What about the “Total number of saccular aneurysms” value ([9]; daily or weekly dose for 2 mo) of the same molecule?
A: reduces

Q: What about the “Total number of saccular aneurysms in 6 mo and 8 mo rats” value ([10]; vs baseline (4 mo) results) of the same molecule?
A: reduces

Q: And the “Average aneurysm size and area” value ([10]; vs control rats)?
A: reduces

Q: What about the “Level of inflammatory invasion in a given aneurysm” value ([10]; vs control rats) of the same molecule?
A: reduces

Q: And the “Number of iron deposits near a given aneurysm” value ([10]; vs control rats)?
A: reduces

Q: What about the “Rho kinase activity in the endothelial/smooth muscle cells of the aneurysm wall” value ([10]; vs control rats) of the same molecule?
A: reduces

Q: What about the “Total number of saccular aneurysms” value ([10]; vs control rats) of the same molecule?
A: reduces

Q: What about the “Transport mechanism across Caco-2 monolayers” value (Caco-2 cell monolayers [7]) of the same molecule?
A: passively transported

Q: What about the “Caco-2 cell permeability (classification)” value (Caco-2 cell monolayers [7]) of the same molecule?
A: high

Q: What about the Bound (human plasma proteins; [15]) of the same molecule?
A: 19.2%

Q: What about the Unbound (human plasma proteins; [16]) of the same molecule?
A: 81.8%

Q: And the Papp A→B at 60 min, 35 µM (in vitro [11])?
A: 18.9 ×10⁻⁶ cm/s

Q: What about the Papp B→A at 60 min, 35 µM (in vitro [11]) of the same molecule?
A: 18.5 ×10⁻⁶ cm/s

Q: For `OC[C@@H](O)[C@@H](O)[C@H](O)[C@H](O)CO` [[^3H]-Mannitol, D-[1-^3H(N)]Mannitol], which “% absorption in humans” value [12] is on record?
A: 15%

Q: And the Papp A→B at 60 min (in vitro [11])?
A: 2.62 ± 0.81 ×10⁻⁶ cm/s

Q: And the Papp A→B at 60 min, 35 µM (in vitro [11])?
A: 1.01 ± 0.146 ×10⁻⁶ cm/s

Q: And the Papp B→A at 60 min (in vitro [11])?
A: 1.36 ± 0.362 ×10⁻⁶ cm/s

Q: And the Papp B→A at 60 min, 35 µM (in vitro [11])?
A: 0.821 ± 0.362 ×10⁻⁶ cm/s

Q: And the efflux ratio at 60 min, 35 µM (in vitro [11])?
A: 0.81

Q: With `CC(C)NC[C@H](O)COc1cccc2ccccc12` [[^3H]-Propranolol, L-(−)-[4-^3H]propranolol] as the molecule, how does the Bound (human plasma proteins; [15]) read?
A: 91.3%

Q: And the Unbound (human plasma proteins; [16])?
A: 8.67%

Q: And the Papp A→B at 60 min (in vitro [11])?
A: 32.3 ± 5.4 ×10⁻⁶ cm/s

Q: And the Papp A→B at 60 min, 35 µM (in vitro [11])?
A: 36 ± 1.65 ×10⁻⁶ cm/s

Q: And the Papp B→A at 60 min (in vitro [11])?
A: 31 ± 5.27 ×10⁻⁶ cm/s

Q: And the Papp B→A at 60 min, 35 µM (in vitro [11])?
A: 27.8 ± 3.68 ×10⁻⁶ cm/s

Q: What about the fraction unbound (in vitro [13]) of the same molecule?
A: 0.121
